Assay results: patent publication US4257941A, “Polycyclic nitrogen-containing compounds” (BASF Aktiengesellschaft, priority 1976, dated 1981)
Where two headings read alike, the source gives them in different places.

What was measured:
tomatoes = test: Action on tomatoes (Example 22); type: in vivo; settings: leaf; for Plant height: 14 days; for Plant height relative: control 100
Description: Tomatoes were grown in the greenhouse in glass dishes 11.5 cm in diameter containing a peat substrate which was provided with an adequate supply of nutrients. The active ingredients were sprayed onto the leaves in conventional manner at a plant height of 9 to 12 cm.

sugar beet = test: Yield and sugar content of sugar beet (Example 20); type: in vivo, sugar beet (KAWpoly variety); settings: for Sugar content of lower stems rel. / Sugar content rel. / Yield rel.: control 100
Description: Sugar beets of the KAWpoly variety were grown in a neutral sandy loam in large pots. Fertilization with 1.5 g N as ammonium nitrate and 1 g P2 O5 as secondary potassium phosphate took place at the time of sowing. At a plant height of 16 to 18 cm the leaves were treated twice, once with 0.5 kg/ha and once with 1 kg/ha; in each case, 4 pots formed a variation of the experiment.

Alopecurus myosuroides = test: Herbicidal action (Example 25); type: in vivo; settings: Alopecurus myosuroides, read-out: percentage damage; for pest or weed control at 2000 g/ha: 2.0 kg/ha; for pest or weed control at 4000 g/ha: 4.0 kg/ha; for pest or weed control at 8000 g/ha: 8.0 kg/ha; for pest or weed control at 1000 g/ha: 1.0 kg/ha
Description: (§1) Paraffined paper cups having a volume of 170 cm^3 were filled with a sandy loam, and the seeds of the test plants sown therein, separated by species. (The species are also listed below.)
(§2) In the first group, treatment was effected immediately after sowing and before germination of the seeds (preemergence treatment=soil treatment). Shallow sown seeds not completely covered with soil came into contact with the active ingredients. In the second group, the plants were treated postemergence (=leaf treatment) at a growth height of from 2 to 8 cm, depending on the rate of growth and shape of the species concerned. The compounds were suspended or emulsified in water and applied with the aid of fine nozzles. The soil and plants were thoroughly sprinkler irrigated for the duration of the experiment. The cups were placed in the greenhouse and kept in the temperature range 12°-25° C. or 18°-35° C., depending on the temperature requirements of the various species. After 2 to 6 weeks the action was assessed visually on a 0 to 100 scale, 0 denoting no damage and 100 denoting plants not germinated or completely destroyed.

Datura stramonium = test: Herbicidal action (Example 25); type: in vivo; settings: postemergence
Description: as §1, §2

Digitaria sanguinalis = test: Herbicidal action (Example 25); type: in vivo; settings: postemergence
Description: as §1, §2

Eleusine indica = test: Herbicidal action (Example 25); type: in vivo; settings: postemergence
Description: as §1, §2

Echinochloa crus galli = test: Herbicidal action (Example 25); type: in vivo
Description: as §1, §2

Galium aparine = test: Herbicidal action (Example 25); type: in vivo; settings: post-emergence, postemergence, 4.0 kg/ha, read-out: percentage damage
Description: as §1, §2

Sinapis alba = test: Herbicidal action (Example 25); type: in vivo; settings: read-out: percentage damage; for pest or weed control at 1000 g/ha: 1.0 kg/ha; for pest or weed control at 2000 g/ha: 2.0 kg/ha
Description: as §1, §2

Row | SMILES | Plant height (tomatoes; 1.5 kg/ha) [cm] | Plant height relative (tomatoes; 1.5 kg/ha) | Plant height (tomatoes; 3.0 kg/ha) [cm] | Plant height relative (tomatoes; 3.0 kg/ha) | Plant height (tomatoes; 6.0 kg/ha) [cm] | Plant height relative (tomatoes; 6.0 kg/ha) | pest or weed control at 2000 g/ha (Alopecurus myosuroides; post-emergence, postemergence) [%] | pest or weed control at 4000 g/ha (Alopecurus myosuroides; post-emergence, postemergence) [%] | pest or weed control at 8000 g/ha (Alopecurus myosuroides; post-emergence, postemergence) [%] | pest or weed control at 2000 g/ha (Alopecurus myosuroides; pre-emergence, preemergence) [%] | pest or weed control at 4000 g/ha (Alopecurus myosuroides; pre-emergence, preemergence) [%] | pest or weed control at 8000 g/ha (Alopecurus myosuroides; pre-emergence, preemergence) [%] | percentage damage (Datura stramonium; 2.0 kg/ha) [percentage damage] | percentage damage (Datura stramonium; 4.0 kg/ha) [percentage damage] | percentage damage (Datura stramonium; 8.0 kg/ha) [percentage damage] | percentage damage (Digitaria sanguinalis; 2.0 kg/ha) [percentage damage] | percentage damage (Digitaria sanguinalis; 4.0 kg/ha) [percentage damage] | percentage damage (Digitaria sanguinalis; 8.0 kg/ha) [percentage damage] | percentage damage (Eleusine indica; 2.0 kg/ha) [percentage damage] | percentage damage (Eleusine indica; 4.0 kg/ha) [percentage damage] | also measured
1 | Brc1ccc(N2N=NC3C4CC(C5N=NC45)C32)cc1 (stereo not shown) [drawing 403] | 25.0 | 91.9 | 22.7 | 83.5 | 15.3 | 56.2 |  |  |  |  |  |  |  |  |  |  |  |  |  |  | 
2 | Clc1ccc(N2N=NC3C4CC(C5N=NC45)C32)cc1 (stereo not shown) [drawing 402] | 24.3 | 89.3 | 20.3 | 74.6 | 14.0 | 51.5 |  |  |  |  |  |  |  |  |  |  |  |  |  |  | 
3 | Brc1ccc(N2N=NC3C4CC(C5N=NC45)C32)cc1 (stereo not shown) [drawing 400] |  |  |  |  |  |  |  |  |  |  |  |  |  |  |  |  |  |  |  |  | Sugar content (sugar beet; 0.5 kg/ha): 51.0 % in dry substance; Sugar content of lower stems (sugar beet; 0.5 kg/ha): 22.9 % in dry substance; Yield (sugar beet; 0.5 kg/ha): 13.04 g dry substance/vessel; Sugar content of lower stems rel. (sugar beet; 0.5 kg/ha): 100.9; Sugar content rel. (sugar beet; 0.5 kg/ha): 101.4; Yield rel. (sugar beet; 0.5 kg/ha): 107.4; Sugar content (sugar beet; 1.0 kg/ha): 52.2 % in dry substance; Sugar content of lower stems (sugar beet; 1.0 kg/ha): 25.8 % in dry substance; Yield (sugar beet; 1.0 kg/ha): 14.39 g dry substance/vessel; Sugar content of lower stems rel. (sugar beet; 1.0 kg/ha): 113.6; Sugar content rel. (sugar beet; 1.0 kg/ha): 103.8; Yield rel. (sugar beet; 1.0 kg/ha): 118.5
4 | CN(C)C(=O)Nc1ccc(Oc2ccccc2)cc1 [drawing 424] |  |  |  |  |  |  | 15 | 22 | 38 | 30 | 25 | 25 | 95 | 95 | 100 | 50 | 70 | 90 | 40 | 50 | percentage damage (Eleusine indica; 8.0 kg/ha): 50 percentage damage
5 | CC(C)OC(=O)Nc1cccc(Cl)c1 [drawing 423] |  |  |  |  |  |  | 25 | 25 | 30 | 95 | 95 | 98 | 30 | 40 | 60 | 80 | 80 | 90 | 50 | 50 | percentage damage (Eleusine indica; 8.0 kg/ha): 50 percentage damage
6 | CCc1cccc(CC)c1N(COC)C(=O)CCl |  |  |  |  |  |  | 50 |  |  | 78 |  |  |  |  |  |  |  |  |  |  | pest or weed control at 1000 g/ha (Alopecurus myosuroides; post-emergence, postemergence): 40%; pest or weed control at 1000 g/ha (Alopecurus myosuroides; pre-emergence, preemergence): 20%; percentage damage (Echinochloa crus galli; postemergence, 1.0 kg/ha): 98 percentage damage; percentage damage (Echinochloa crus galli; postemergence, 2.0 kg/ha): 98 percentage damage; percentage damage (Echinochloa crus galli; preemergence, 1.0 kg/ha): 100 percentage damage; percentage damage (Echinochloa crus galli; preemergence, 2.0 kg/ha): 100 percentage damage; pest or weed control at 4000 g/ha (Galium aparine): 0%; pest or weed control at 1000 g/ha (Sinapis alba; post-emergence, postemergence): 0%; pest or weed control at 2000 g/ha (Sinapis alba; post-emergence, postemergence): 0%; pest or weed control at 1000 g/ha (Sinapis alba; pre-emergence, preemergence): 0%; pest or weed control at 2000 g/ha (Sinapis alba; pre-emergence, preemergence): 0%
